Numbers after ± are expanded uncertainties.
Test: mn = molality of the nth substance listed, in mol/kg
Conditions: 100 kPa, Liquid; for speed of sound: Frequency=3 MHz, Sing-around technique in a fixed-path interferometer; for mass density: Vibrating tube method

CC(C)Cc1ccc(C(C)C(=O)[O-])cc1.[Na+] (stereo not given) [sodium ibuprofen] + O
Conditions	mass density, 288.15 K [kg/m3]	mass density, 293.15 K [kg/m3]	mass density, 298.15 K [kg/m3]	mass density, 303.15 K [kg/m3]	mass density, 308.15 K [kg/m3]	speed of sound, 288.15 K [m/s]	speed of sound, 293.15 K [m/s]	speed of sound, 298.15 K [m/s]	speed of sound, 303.15 K [m/s]	speed of sound, 308.15 K [m/s]
m1 = 0.05	1003.2 ± 2	1002.24 ± 2	1001.03 ± 2	999.585 ± 2	997.921 ± 2	1477.5 ± 2.4	1492.8 ± 2.4	1506 ± 2.4	1517.7 ± 2.4	1527.8 ± 2.4
m1 = 0.15	1007.46 ± 2	1006.39 ± 2	1005.07 ± 2	1003.52 ± 2	1001.77 ± 2	1496.9 ± 2.4	1510.7 ± 2.4	1522.9 ± 2.4	1533.4 ± 2.4	1542.4 ± 2.4
m1 = 0.25	1010.79 ± 2	1009.6 ± 2	1008.17 ± 2	1006.53 ± 2	1004.69 ± 2	1510.2 ± 2.4	1522.3 ± 2.4	1533.1 ± 2.4	1542.4 ± 2.4	1550.3 ± 2.4
m1 = 0.35	1015.17 ± 2	1013.83 ± 2	1012.29 ± 2	1010.55 ± 2	1008.62 ± 2	1518.1 ± 2.4	1529.1 ± 2.4	1538.9 ± 2.4	1547.4 ± 2.4	1554.5 ± 2.4
